Measurements from patent US7550456B2, “Substituted aryl cycloalkanoyl derivatives and methods of their use” (Wyeth, priority 2003, dated 2009).
Counter-ions that a name gives are not always drawn.

Target: T1, human hNET (Homo sapiens, UniProt P23975)
T1 construct: expressed in transfected cells; host or cells: MDCK-Net6 (MDCK cells, stably transfected)
Test: Norepinephrine (NE) uptake assay in MDCK-Net6 cells
Assay type: cell-based
Conditions: 1 μM test compound, [3H]NE uptake, read-out: % Inhibition @ 1 μM (hNET)
Method: Cells were plated at 300,000/T75 flask and cells were split twice weekly. […] Cells were plated at 250,000 cells/T75 flask and split twice weekly.
Norepinephrine (NE) Uptake Assay
On day 1, cells were plated at 3,000 cells/well in growth medium and maintained in a cell incubator (37° C., 5% CO2). On day 2, growth medium was replaced with 200 μl of assay buffer (25 mM HEPES; 120 mM NaCl; 5 mM KCl; 2.5 mM CaCl2; 1.2 mM MgSO4; 2 mg/ml glucose (pH 7.4, 37° C.)) containing 0.2 mg/ml ascorbic acid and 10 μM pargyline. Plates containing cells with 200 μl of assay buffer were equilibrated for 10 minutes at 37° C. prior to addition of compounds. A stock solution of desipramine was prepared in DMSO (10 mM) and delivered to triplicate wells containing cells for a final test concentration of 1 μM. Data from these wells were used to define non-specific NE uptake (minimum NE uptake). Test compounds were prepared in DMSO (10 mM) and diluted in assay buffer according to test range (1 to 10,000 nM). Twenty-five microliters of assay buffer (maximum NE uptake) or test compound were added directly to triplicate wells containing cells in 200 μl of assay buffer. The cells in assay buffer with test compounds were incubated for 20 minutes at 37° C. […] The reaction was terminated by decanting the supernatant from the plate. The plates containing cells were washed twice with 200 μl assay buffer (37° C.) to remove free radioligand. The plates were then inverted, left to dry for 2 minutes, then reinverted and air-dried for an additional 10 minutes. The cells were lysed in 25 μl of 0.25 N NaOH solution (4° C.), placed on a shake table and vigorously shaken for 5 minutes. After cell lysis, 75 μl of scintillation cocktail was added to each well and the plates were sealed with film tape. The plates were returned to the shake table and vigorously shaken for a minimum of 10 minutes to ensure adequate partitioning of organic and aqueous solutions. The plates were counted in a Wallac Microbeta counter (PerkinElmer) to collect the raw cpm data.
For each experiment, a data stream of cpm values collected from the Wallac Microbeta counter was downloaded to a Microsoft Excel statistical application program. Calculations of EC50 values were made using the transformed-both-sides logistic dose response program written by Wyeth Biometrics Department.

T1 sequence (P23975 whole entry): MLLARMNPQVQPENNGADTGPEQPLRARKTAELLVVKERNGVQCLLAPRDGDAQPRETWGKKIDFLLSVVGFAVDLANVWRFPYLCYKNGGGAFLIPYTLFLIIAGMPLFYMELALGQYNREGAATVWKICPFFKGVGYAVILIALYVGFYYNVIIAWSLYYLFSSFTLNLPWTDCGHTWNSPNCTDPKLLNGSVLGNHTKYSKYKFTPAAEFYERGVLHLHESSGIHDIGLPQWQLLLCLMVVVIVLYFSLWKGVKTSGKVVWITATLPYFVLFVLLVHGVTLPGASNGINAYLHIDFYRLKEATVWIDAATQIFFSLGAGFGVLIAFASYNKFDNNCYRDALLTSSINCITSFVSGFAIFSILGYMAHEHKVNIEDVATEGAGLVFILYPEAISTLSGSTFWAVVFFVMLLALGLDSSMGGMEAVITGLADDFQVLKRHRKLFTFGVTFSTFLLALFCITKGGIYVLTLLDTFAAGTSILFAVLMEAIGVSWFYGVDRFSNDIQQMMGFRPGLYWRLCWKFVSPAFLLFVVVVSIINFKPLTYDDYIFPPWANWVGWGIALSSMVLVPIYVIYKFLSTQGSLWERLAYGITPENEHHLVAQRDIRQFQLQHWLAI

How did the inhibition at 1 µM turn out when CCC1CN(C[C@H](c2cccc(OC(F)(F)F)c2)C2(O)CCCCC2)CCN1 (stereo partly drawn) [Example 350, 1-{(1S)-2-(3-ethylpiperazin-1-yl)-1-[3-(trifluoromethoxy)phenyl]ethyl}cyclohexanol dihydrochloride] was run?
Its inhibition at 1 µM is 79%.

For OC1(C(CN2CCNCC2)c2ccc(-c3cccc(F)c3)cc2)CCCCC1 (centres unmarked) [Example 166, 1-[1-(3′-fluoro-1,1′-biphenyl-4-yl)-2-piperazin-1-ylethyl]cyclohexanol dihydrochloride], which inhibition at 1 µM is on record?
The inhibition at 1 µM was 48%.

With OC1(C(CN2CCNCC2)c2ccc(OCc3cccc(C(F)(F)F)c3)cc2)CCCCC1 (centres unmarked) [Example 438, 1-[2-piperazin-1-yl-1-(4-{[3-(trifluoromethyl)benzyl]oxy}phenyl)ethyl]cyclohexanol dihydrochloride] as the molecule, how does the inhibition at 1 µM read?
The inhibition at 1 µM was 69%.

How did the inhibition at 1 µM turn out when OC1(C(CN2CCNCC2)c2ccccc2-c2ccc(Cl)c(Cl)c2)CCCCC1 (centres unmarked) [Example 148, 1-[1-(3′,4′-dichloro-1,1′-biphenyl-2-yl)-2-piperazin-1-ylethyl]cyclohexanol dihydrochloride] was run?
The inhibition at 1 µM was 32%.

Which inhibition at 1 µM does the source give for CN1CCN(CC(c2ccc(OCc3ccc(C(F)(F)F)cc3)c(F)c2)C2(O)CCCCC2)CC1 (centres unmarked) [Example 416, 1-[1-(3-fluoro-4-{[4-(trifluoromethyl)benzyl]oxy}phenyl)-2-(4-methylpiperazin-1-yl)ethyl]cyclohexanol dihydrochloride] here?
Its inhibition at 1 µM is 91%.

How did the inhibition at 1 µM turn out when OC1(C(CN2CCNCC2)c2ccc(OCc3ccccc3)cc2)CCC1 (centres unmarked) [Example 70, 1-{1-[4-(benzyloxy)phenyl]-2-piperazin-1-ylethyl}cyclobutanol dihydrochloride] was run?
The inhibition at 1 µM was 8%.

For COc1cccc(-c2ccc(C(CN3CCNCC3)C3(O)CCCCC3)cc2)c1 (centres unmarked) [Example 170, 1-[1-(3′-methoxy-1,1′-biphenyl-4-yl)-2-piperazin-1-ylethyl]cyclohexanol dihydrochloride], which inhibition at 1 µM is on record?
The inhibition at 1 µM was 19%.

How did the inhibition at 1 µM turn out when CN1CCN(CC(c2cc(Br)c(OCc3ccccc3)c(Br)c2)C2(O)CCCCC2)CC1 (centres unmarked) [Example 393, 1-[1-[4-(benzyloxy)-3,5-dibromophenyl]-2-(4-methylpiperazin-1-yl)ethyl]cyclohexanol dihydrochloride] was run?
Its inhibition at 1 µM is 59%.

With OC1(C(CN2CCNCC2)c2ccc(-c3cccc(Cl)c3)cc2)CCCCC1 (centres unmarked) [Example 167, 1-[1-(3′-chloro-1,1′-biphenyl-4-yl)-2-piperazin-1-ylethyl]cyclohexanol dihydrochloride] as the molecule, how does the inhibition at 1 µM read?
Its inhibition at 1 µM is 25%.

CC(C)N1CCN(CC(c2cccc(OC(F)(F)F)c2)C2(O)CCCCC2)CC1 (centres unmarked) [Example 362, 1-{2-(4-isopropylpiperazin-1-yl)-1-[3-(trifluoromethoxy)phenyl]ethyl}cyclohexanol dihydrochloride] was tested. Which inhibition at 1 µM did it give?
The inhibition at 1 µM was 51%.

How did the inhibition at 1 µM turn out when OC1(C(CN2CCNCC2)c2ccc(-c3ccc(Cl)c(Cl)c3)cc2)CCCCC1 (centres unmarked) [Example 173, 1-[1-(3′,4′-dichloro-1,1′-biphenyl-4-yl)-2-piperazin-1-ylethyl]cyclohexanol dihydrochloride] was run?
The inhibition at 1 µM was 35%.

Which inhibition at 1 µM does the source give for OC1(C(CN2CCNCC2)c2ccc(OCc3ccccc3)cc2)CCCCC1 (centres unmarked) [Example 27, 1-{1-[4-(benzyloxy)phenyl]-2-piperazin-1-ylethyl}cyclohexanol dihydrochloride] here?
Its inhibition at 1 µM is 82%.

OC1(C(CN2CCNCC2)c2ccc(OCc3ccccc3C(F)(F)F)cc2)CCCCC1 (centres unmarked) [Example 440, 1-[2-piperazin-1-yl-1-(4-{[2-(trifluoromethyl)benzyl]oxy}phenyl)ethyl]cyclohexanol dihydrochloride] was tested. Which inhibition at 1 µM did it give?
Its inhibition at 1 µM is 28%.

CN1CCN(CC(c2ccc(-c3ccccc3)cc2)C2(O)CCCCC2)CC1 (centres unmarked) [Example 158, 1-[1-(1,1′-biphenyl-4-yl)-2-(4-methylpiperazin-1-ylethyl]cyclohexanoldihydrochloride] was tested. Which inhibition at 1 µM did it give?
The inhibition at 1 µM was 57%.

For O=[N+]([O-])c1cccc(-c2ccc(C(CN3CCNCC3)C3(O)CCCCC3)cc2)c1 (centres unmarked) [Example 169, 1-[1-(3′-nitro-1,1′-biphenyl-4-yl)-2-piperazin-1-ylethyl]cyclohexanol dihydrochloride], which inhibition at 1 µM is on record?
Its inhibition at 1 µM is 69%.

Same assay, conditions: [3H]NE uptake, test range 1 to 10,000 nM

For OC1(C(CN2CCNCC2)c2ccc(OCc3ccccc3)cc2)CCCCC1 (centres unmarked) [Example 27, 1-{1-[4-(benzyloxy)phenyl]-2-piperazin-1-ylethyl}cyclohexanol dihydrochloride], which EC50 is on record?
Its EC50 is 470 nM.

Which EC50 does the source give for O=[N+]([O-])c1cccc(-c2ccc(C(CN3CCNCC3)C3(O)CCCCC3)cc2)c1 (centres unmarked) [Example 169, 1-[1-(3′-nitro-1,1′-biphenyl-4-yl)-2-piperazin-1-ylethyl]cyclohexanol dihydrochloride] here?
Its EC50 is 850 nM.
